Reference: patent US5648368A, “Fibrinogen receptor antagonists” (Merck & Co., Inc., priority 1995, dated 1997)

test system: gel-filtered human platelets; experiment: ADP-stimulated/ADP-mediated platelet aggregation inhibition (Chronolog aggregometer); type: cell-based; conditions: Homo sapiens, Platelet; table 2; "Using the methods previously described"; read-out: IC50 (μM) Inhibition of Platelet Aggregation
Description: Platelet aggregation is measured at 37° C. in a Chronolog aggregometer. The reaction mixture contains gel-filtered human platelets (2×10^8 per ml), fibrinogen (100 micrograms per ml (ug/ml)), Ca^2 + (1 mM), and the compound to be tested. The aggregation is initiated by adding 10 μM ADP 1 minute after the other components are added. The reaction is then allowed to proceed for at least 2 minutes. The extent of inhibition of aggregation is expressed as the percentage of the rate of aggregation observed in the absence of inhibitor. The IC50 is the dose of a particular compound inhibiting aggregation by 50% relative to a control lacking the compound.
In addition to the following preparative procedures, several examples of in-vitro bioactivity of compounds within the scope of the present invention are indicated. To illustrate, one test which is used to evaluate fibrinogen receptor antagonist activity is based on evaluation of inhibition of ADP-stimulated platelets. Aggregation requires that fibrinogen bind to and occupy the platelet fibrinogen receptor site. Inhibitors of fibrinogen binding inhibit aggregation. In the ADP-stimulated platelet aggregation assay used to determine inhibition associated with the compounds claimed in the instant invention, human platelets are isolated from fresh blood, collected into acid citrate/dextrose by differential centrifugation followed by gel filtration on Sepharose 2B in divalent ion-free Tyrode's buffer (pH 7.4) containing 2% bovine serum albumin. [drawing 11]

| Compound | IC50 |
| --- | --- |
| O=C(NC[C@H](NS(=O)(=O)c1ccccc1)C(=O)O)c1ccc(OCCCC2CNC2)cc1 | 0.01 µM |
| O=C(NC[C@H](NS(=O)(=O)c1ccccc1)C(=O)O)c1ccc(OCCC2CNC2)cc1 | 0.017 µM |
| O=C(O)CCNC(=O)c1cc(C(=O)NCCC2CCNCC2)ccn1 | 1.1 µM |
| O=C(NC[C@H](NS(=O)(=O)c1ccccc1)C(=O)O)c1ccc(OCCN2CCNCC2)cc1 | 0.023 µM |

Continued, values first:

| IC50 | Compound |
| --- | --- |
| 0.11 µM | CCCCS(=O)(=O)N[C@@H](CNC(=O)c1cncc(C(=O)NCCC2CCNCC2)c1)C(=O)O |
| 0.45 µM | Cc1ccc(C(=O)NCCC2CCNCC2)cc1C(=O)NCCC(=O)O |
| 0.02 µM | CCCCS(=O)(=O)N[C@@H](CNC(=O)c1ccc(C(=O)NCCC2CCNCC2)cc1)C(=O)O |
| 0.009 µM | O=C(NC[C@H](NS(=O)(=O)c1ccccc1)C(=O)O)c1ccc(NCCC2CCNCC2)cc1 |
| 0.14 µM | CCCCS(=O)(=O)N[C@@H](CNC(=O)c1ccc(C(=O)NCC2CCNCC2)cc1)C(=O)O |
| 0.017 µM | O=C(NCCC1CCNCC1)c1ccc(C(=O)NC[C@H](NS(=O)(=O)c2cccnc2)C(=O)O)cc1 |
| 0.056 µM | O=C(NC[C@H](NS(=O)(=O)c1ccccc1)C(=O)O)c1cccc(OCCCC2CCNCC2)c1 |
| 0.009 µM | O=C(NC[C@H](NS(=O)(=O)c1cccnc1)C(=O)O)c1ccc(OCCC2CCNCC2)cc1 |
| 0.023 µM | CCCCS(=O)(=O)N[C@@H](CNC(=O)c1cccc(C(=O)N(C)CCC2CCNCC2)c1)C(=O)O |
| 0.019 µM | O=C(NC[C@H](NS(=O)(=O)c1ccccc1)C(=O)O)c1ccc(S(=O)(=O)CCC2CCNCC2)cc1 |
| 1.6 µM | O=C(O)CCNC(=O)c1ccnc(C(=O)NCCC2CCNCC2)c1 |
| 0.15 µM | CCCCS(=O)(=O)N[C@@H](CNC(=O)c1cc(C(=O)NCCC2CCNCC2)ccc1C)C(=O)O |
| 0.052 µM | O=C(NCCCC1CCNCC1)c1ccc(C(=O)NC[C@H](NS(=O)(=O)c2cccnc2)C(=O)O)cc1 |

same assay, conditions: Platelet; gel-filtered human platelets 2×10^8 per ml, fibrinogen 100 ug/ml, Ca2+ 1 mM, 10 μM ADP, 37° C.; table 1; read-out: IC50 for inhibition of ADP-mediated platelet aggregation

| Compound | IC50 |
| --- | --- |
| CCCCS(=O)(=O)N[C@@H](CNC(=O)CCc1ccc(C2=CCNCC2)cc1)C(=O)O [4-(1,2,5,6-Tetrahydropyridin-4-yl)phenyl-3-propionyl-[2(S)-n-butylsulfonylamino]-β-alanine] | 0.022 µM |
| O=C(O)CCNC(=O)CCc1ccc(C2=CCNCC2)cc1 [4-(1,2,5,6-Tetrahydropyridin-4-yl)phenyl-3-propionyl-β-alanine] | 1.7 µM |
| CC(CC(=O)NCCC(=O)O)c1ccc(C2=CCNCC2)cc1 (stereo not drawn) [3-[4-(1,2,5,6-Tetrahydropyridin-4-yl)phenyl]butyryl-β-alanine] | 1.3 µM |
| O=C(O)CCNC(=O)CCc1ccc(C2CCNCC2)cc1 [4-(Piperidin-4-yl)phenyl-3-propionyl-β-alanine] | 11 µM |
| O=C(O)CCNC(=O)Cc1cccc(OCC2CCNCC2)c1 [3-[(4-Piperidinyl)methyloxy]-N-(2-carboxyethyl)phenyl Acetamide] | 56 µM |
| O=C(O)CCNC(=O)CCc1cccc(CC2CCNCC2)c1 [3-[3-(Piperidin-4-ylmethyl)phenyl]propionyl-β-alanine] | 170 µM |

Other lines, results leading:

| IC50 | Compound |
| --- | --- |
| 0.1 µM | CCCCS(=O)(=O)N[C@@H](CNC(=O)CCc1ccc(C2CCNCC2)cc1)C(=O)O [4-(Piperidin-4-yl)phenyl-3-propionyl-[2(S)-n-butyl-sulfonylamino]-β-alanine] |
| 0.014 µM | O=C(NC[C@H](NS(=O)(=O)c1ccccc1)C(=O)O)c1ccc(OCCC2CCNCC2)cc1 [4-[2-(Piperidin-4-yl)ethoxy]benzoyl-2(S)-phenylsulfonylamino-β-alanine] |

same assay, conditions: gel-filtered human platelets 2×10^8 per ml, fibrinogen 100 ug/ml, Ca2+ 1 mM, 10 μM ADP, 37° C.; table 1; read-out: IC50 for inhibition of ADP-mediated platelet aggregation

| IC50 | Compound |
| --- | --- |
| 5.2 µM | O=C(O)CC(CCc1c[nH]c2ccccc12)NC(=O)Cc1cccc(OCC2CCNCC2)c1 (centres unmarked) [3-[(4-Piperidinyl)methyloxy]-N-[3-(2-indol-3-yl)ethyl Propionic Acid]-phenyl Acetamide] |
| 0.095 µM | CCCCS(=O)(=O)N[C@@H](Cc1ccc(NC(=O)CCCC2CCNCC2)cc1)C(=O)O [4-(4-Piperidin-4-yl)-N-3[2(S)-n-butylsulfonylaminopropionic acid]-phenylbutyramide] |

test system: cell attachment-promoting effects of fibronectin and vitronectin; experiment: not given; conditions: background statement; cited from earlier work

| Compound | activity of the tripeptide Arg-Gly-Asp |
| --- | --- |
| arginine-glycine-aspartic acid [Arg-Gly-Asp] | low activity |

test system: gpIIb/IIIa complex; experiment: not given; conditions: snake venom polypeptides; literature; cited from earlier work

| Compound | affinity for the gpIIb/IIIa complex |
| --- | --- |
| Echistatin | high affinity |
